Source: PMC4824433, “A Carbapenem-Resistant Pseudomonas aeruginosa Isolate Harboring Two Copies of blaIMP-34 Encoding a Metallo-β-Lactamase” (PLoS ONE, 2016)
In brackets after ≈: the same amount, converted by molar mass.

Assays:
[1] = test system: T1, E. coli DH5α (pHSG398); assay: microbe, parasite or virus in culture; design: CLSI microdilution susceptibility test, minimum inhibitory concentration of bacterial growth; conditions: Escherichia coli; empty vector control; read-out: MIC (μg/ml) / E. coli DH5α (pHSG398)
T1 construct: DH5α (pHSG398) empty vector control
Method: (§1) The ORFs of blaIMP-1 and blaIMP-34 were amplified by PCR using the primers EcoRI-IMP-1/34-F(5′-gggGAATTCatgagcaagttatctgtattc-3′; uppercase letters indicate an EcoRI digestion site) and PstI-IMP-1/34-R (5′-aaaCTGCAGttagttgcttggttttgatgg-3′; uppercase letters indicate a PstI digestion site). […] The plasmids were used to transform DH5α, and transformants were selected on LB agar containing 30 μg/mL of chloramphenicol, and their susceptibilities to various β-lactams were assayed. P. aeruginosa NCGM2.S1 harboring blaIMP-1 was used as a reference strain [12].

[2] = test system: T2, E. coli DH5α (pHSG398/IMP-1); assay: microbe, parasite or virus in culture; design: CLSI microdilution susceptibility test, minimum inhibitory concentration of bacterial growth; conditions: Escherichia coli, read-out: MIC (μg/ml) / E. coli DH5α (pHSG398/IMP-1)
T2 construct: DH5α (pHSG398/IMP-1) transformant expressing blaIMP-1 from pHSG398
Method: as §1

[3] = test system: T3, P. aeruginosa NCGM1984; assay: microbe, parasite or virus in culture; design: CLSI microdilution susceptibility test, minimum inhibitory concentration of bacterial growth; conditions: clinical isolate carrying two copies of blaIMP-34; for MIC: Pseudomonas aeruginosa, NCGM1984, read-out: MIC (μg/ml) / P. aeruginosa NCGM1984
T3 construct: NCGM1984 (clinical isolate, ST235, two chromosomal copies of blaIMP-34)

[4] = test system: CC1=C(C(=O)O)N2C(=O)[C@@H](NC(=O)[C@H](N)C3=CCC=CC3)[C@H]2SC1; assay: purified protein; conditions: 50 mM Tris-HCl pH 7.4, 5 μM Zn(NH3)2, 37°C
Description: (§2) UV-visible spectrophotometry, initial rates, Lineweaver-Burk plots on IMP-1

[5] = test system: C[C@@H](O)[C@H]1C(=O)N2C(C(=O)O)=C(S[C@@H]3CN[C@H](C(=O)N(C)C)C3)[C@H](C)[C@H]12; assay: purified protein; conditions: 50 mM Tris-HCl pH 7.4, 5 μM Zn(NH3)2, 37°C
Description: as §2

[6] = test system: C[C@@H](O)[C@H]1C(=O)N2C(C(=O)O)=C(SCCN=CN)C[C@H]12; assay: purified protein; conditions: 50 mM Tris-HCl pH 7.4, 5 μM Zn(NH3)2, 37°C
Description: as §2

[7] = test system: CC1(C)S[C@@H]2[C@H](NC(=O)[C@H](N)c3ccccc3)C(=O)N2[C@H]1C(=O)O; assay: purified protein; conditions: 50 mM Tris-HCl pH 7.4, 5 μM Zn(NH3)2, 37°C
Description: as §2

[8] = test system: CO/N=C(\C(=O)N[C@@H]1C(=O)N2C(C(=O)O)=C(COC(C)=O)CS[C@H]12)c1csc(N)n1; assay: purified protein; conditions: 50 mM Tris-HCl pH 7.4, 5 μM Zn(NH3)2, 37°C
Description: as §2

[9] = test system: CC1(C)S[C@@H]2[C@H](NC(=O)Cc3ccccc3)C(=O)N2[C@H]1C(=O)O; assay: purified protein; conditions: 50 mM Tris-HCl pH 7.4, 5 μM Zn(NH3)2, 37°C
Description: as §2

[10] = test system: C[C@@H](O)[C@H]1C(=O)N2C(C(=O)O)=C(S[C@@H]3CN[C@H](CNS(N)(=O)=O)C3)[C@H](C)[C@H]12; assay: purified protein; conditions: 50 mM Tris-HCl pH 7.4, 5 μM Zn(NH3)2, 37°C
Description: as §2

[11] = test system: CC(C)(O/N=C(\C(=O)N[C@@H]1C(=O)N2C(C(=O)[O-])=C(C[n+]3ccccc3)CS[C@H]12)c1csc(N)n1)C(=O)O; assay: purified protein; conditions: 50 mM Tris-HCl pH 7.4, 5 μM Zn(NH3)2, 37°C
Description: as §2

[12] = test system: CO[C@@]1(NC(=O)Cc2cccs2)C(=O)N2C(C(=O)O)=C(COC(N)=O)CS[C@@H]21; assay: purified protein; conditions: 50 mM Tris-HCl pH 7.4, 5 μM Zn(NH3)2, 37°C
Description: as §2

[13] = test system: CO/N=C(\C(=O)N[C@@H]1C(=O)N2C(C(=O)[O-])=C(C[N+]3(C)CCCC3)CS[C@H]12)c1csc(N)n1; assay: purified protein; conditions: 50 mM Tris-HCl pH 7.4, 5 μM Zn(NH3)2, 37°C
Description: as §2

`CC1(C)S[C@@H]2[C@H](NC(=O)[C@H](N)c3ccccc3)C(=O)N2[C@H]1C(=O)O` [Ampicillin] was tested, and the MIC [1] was 2 µg/mL (≈ 5.72 µM), the MIC [2] was 32 µg/mL (≈ 91.6 µM) and the MIC [3] was greater than 1020 µg/mL.
`C[C@H]1[C@H](NC(=O)/C(=N\OC(C)(C)C(=O)O)c2csc(N)n2)C(=O)N1S(=O)(=O)O` [Aztreonam] was tested, and the MIC [1] was no more than 0.25 µg/mL, the MIC [2] was no more than 0.25 µg/mL and the MIC [3] was 64 µg/mL (≈ 147 µM).
In the case of `CO/N=C(\C(=O)N[C@@H]1C(=O)N2C(C(=O)[O-])=C(C[N+]3(C)CCCC3)CS[C@H]12)c1csc(N)n1` [Cefepime], the MIC [3] is reported as greater than 1020 µg/mL.
For `CO/N=C(\C(=O)N[C@@H]1C(=O)N2C(C(=O)O)=C(COC(C)=O)CS[C@H]12)c1csc(N)n1` [Cefotaxime], the MIC [1] was no more than 0.25 µg/mL, the MIC [2] was 16 µg/mL (≈ 35.1 µM) and the MIC [3] was greater than 1020 µg/mL.
`CO[C@@]1(NC(=O)Cc2cccs2)C(=O)N2C(C(=O)O)=C(COC(N)=O)CS[C@@H]21` [Cefoxitin] showed an MIC [1] of 2 µg/mL (≈ 4.68 µM), an MIC [2] of 512 µg/mL (≈ 1200 µM) and an MIC [3] greater than 1020 µg/mL.
Work on `CO/N=C(\C(=O)N[C@@H]1C(=O)N2C(C(=O)[O-])=C(C[n+]3ccn4ncccc43)CS[C@H]12)c1nsc(N)n1` [Cefozopran] yielded an MIC [1] of no more than 0.25 µg/mL, an MIC [2] of 4 µg/mL (≈ 7.76 µM) and an MIC [3] greater than 1020 µg/mL.
In the case of `CO/N=C(\C(=O)N[C@@H]1C(=O)N2C(C(=O)[O-])=C(C[n+]3cccc4c3CCC4)CS[C@H]12)c1csc(N)n1` [Cefpirome], the MIC [1] is reported as no more than 0.25 µg/mL, the MIC [2] is reported as 0.25 µg/mL (≈ 0.486 µM) and the MIC [3] is reported as 512 µg/mL (≈ 995 µM).
For `CC(C)(O/N=C(\C(=O)N[C@@H]1C(=O)N2C(C(=O)[O-])=C(C[n+]3ccccc3)CS[C@H]12)c1csc(N)n1)C(=O)O` [Ceftazidime], the MIC [1] was no more than 0.25 µg/mL, the MIC [2] was 512 µg/mL (≈ 937 µM) and the “MIC (μg/ml) / P. aeruginosa NCGM1984” value [3] was > 1,024 ug/mL.
In the case of `CO/N=C(\C(=O)N[C@@H]1C(=O)N2C(C(=O)O)=C(CSc3nc(=O)c(O)nn3C)CS[C@H]12)c1csc(N)n1` [Ceftriaxone], the MIC [1] is reported as no more than 0.25 µg/mL, the MIC [2] is reported as 64 µg/mL (≈ 115 µM) and the MIC [3] is reported as greater than 1020 µg/mL.
For `CO/N=C(\C(=O)N[C@@H]1C(=O)N2C(C(=O)O)=C(COC(N)=O)CS[C@H]12)c1ccco1` [Cefuroxime], the MIC [1] was 4 µg/mL (≈ 9.43 µM), the MIC [2] was 256 µg/mL (≈ 603 µM) and the MIC [3] was greater than 1020 µg/mL.
`CC1=C(C(=O)O)N2C(=O)[C@@H](NC(=O)[C@H](N)C3=CCC=CC3)[C@H]2SC1` [Cephradine] gave an MIC [1] of 16 µg/mL (≈ 45.8 µM), an MIC [2] of 256 µg/mL (≈ 733 µM) and an MIC [3] greater than 1020 µg/mL.
`C[C@@H](O)[C@H]1C(=O)N2C(C(=O)O)=C(S[C@@H]3CN[C@H](CNS(N)(=O)=O)C3)[C@H](C)[C@H]12` [Doripenem] was tested, and the MIC [1] was no more than 0.25 µg/mL, the MIC [2] was 0.25 µg/mL (≈ 0.595 µM) and the MIC [3] was greater than 1020 µg/mL.
With `C[C@@H](O)[C@H]1C(=O)N2C(C(=O)O)=C(SCCN=CN)C[C@H]12` [Imipenem] the MIC [1] was no more than 0.25 µg/mL, the MIC [2] was 0.5 µg/mL (≈ 1.67 µM) and the MIC [3] was 512 µg/mL (≈ 1710 µM).
`C[C@@H](O)[C@H]1C(=O)N2C(C(=O)O)=C(S[C@@H]3CN[C@H](C(=O)N(C)C)C3)[C@H](C)[C@H]12` [Meropenem] was tested, and the MIC [1] was no more than 0.25 µg/mL, the MIC [2] was 0.5 µg/mL (≈ 1.3 µM) and the MIC [3] was greater than 1020 µg/mL.
In the case of `CO[C@@]1(NC(=O)C(C(=O)O)c2ccc(O)cc2)C(=O)N2C(C(=O)O)=C(CSc3nnnn3C)CO[C@@H]21` (stereo partly shown) [Moxalactam], the MIC [1] is reported as no more than 0.25 µg/mL, the MIC [2] is reported as 64 µg/mL (≈ 123 µM) and the MIC [3] is reported as greater than 1020 µg/mL.
For `CC1(C)S[C@@H]2[C@H](NC(=O)Cc3ccccc3)C(=O)N2[C@H]1C(=O)O` [Penicillin G], the MIC [1] was 32 µg/mL (≈ 95.7 µM), the MIC [2] was 128 µg/mL (≈ 383 µM) and the MIC [3] was greater than 1020 µg/mL.
Compound IMP-1 (Serratia marcescens) has a Km [4] of 73 ± 2 µM, a kcat [4] of 21 ± 1 s⁻¹ and a kcat/Km [4] of 290000 M⁻¹ s⁻¹. It also gave a Km [5] of 37 ± 12 µM, a kcat [5] of 2.3 ± 0.2 s⁻¹ and a kcat/Km [5] of 66000 M⁻¹ s⁻¹. It also gave a Km [6] of 58 ± 14 µM, a kcat [6] of 6.9 ± 0.5 s⁻¹ and a kcat/Km [6] of 120000 M⁻¹ s⁻¹. It also gave a Km [7] of 341 ± 17 µM, a kcat [7] of 16 ± 1 s⁻¹ and a kcat/Km [7] of 48000 M⁻¹ s⁻¹. For the same compound, the Km [8] was 13 ± 2 µM, the kcat [8] was 2.8 ± 0.1 s⁻¹ and the kcat/Km [8] was 220000 M⁻¹ s⁻¹. For the same compound, the Km [9] was 685 ± 99 µM, the kcat [9] was 94 ± 12 s⁻¹ and the kcat/Km [9] was 140000 M⁻¹ s⁻¹. The Km [10] was 39 ± 8 µM, the kcat [10] was 4.8 ± 0.1 s⁻¹ and the kcat/Km [10] was 130000 M⁻¹ s⁻¹. It also gave a Km [11] of 26 ± 1 µM, a kcat [11] of 0.68 ± 0.01 s⁻¹ and a kcat/Km [11] of 26000 M⁻¹ s⁻¹. It also gave a Km [12] of 34 ± 5 µM, a kcat [12] of 2.7 ± 0.1 s⁻¹ and a kcat/Km [12] of 80000 M⁻¹ s⁻¹. For the same compound, the Km [13] was 22 ± 8 µM, the kcat [13] was 1.4 ± 0.2 s⁻¹ and the kcat/Km [13] was 68000 M⁻¹ s⁻¹.
